Assay: Solubility of Compound 1 (statement)
Type: physicochemical
Description: While Compound 1 is an example of a small molecule with a number of polar functional groups. […] These organic polar solvents, however, are not typically pharmaceutically acceptable for use in drug formulation.

Cc1ncsc1-c1ccc([C@H](C)NC(=O)[C@@H]2C[C@@H](O)CC2C(=O)[C@@H](NC(=O)CCCCCC(=O)N2CCN(CC[C@H](CSc3ccccc3)Nc3ccc(S(=O)(=O)NC(=O)c4ccc(N5CCN(CC6=C(c7ccc(Cl)cc7)CCC(C)(C)C6)CC5)cc4)cc3S(=O)(=O)C(F)(F)F)CC2)C(C)(C)C)cc1 (some centres unmarked) [Compound 1]
Solubility in organic polar solvents: sufficiently soluble | Solubility in water or water based solvent mixtures: not sufficiently soluble

Reference: US20240009122A1, “Small Molecule Formulation” (Dialectic Therapeutics, Inc., priority 2020, published 2024)
